Assay results from the supplement of paper PMC10307832.

Columns and labels:
Assay in all cases: relative viability (nuclei count vs DMSO), 5 days (fraction); higher = more cells survive
[1] = tested on: NCI-H2085
Method in brief: (§1)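 Dosing by pin tool came one day after lung cancer cell lines were seeded in 1536-well plates, using either one drug or a fixed anchor-drug dose plus five library-drug doses (not always all listed) in √10 steps. After 5 days, nuclei were counted on 4× images. Relative viability is treated-well nuclei count divided by vehicle-well nuclei count, and values are medians of duplicate plates.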

[2] = tested on: A-427
Method in brief: as §1

[3] = tested on: HARA
Method in brief: as §1

[4] = tested on: NCI-H596
Method in brief: as §1

[5] = tested on: NCI-H661
Method in brief: as §1

[6] = tested on: NCI-H2126
Method in brief: as §1

[7] = tested on: NCI-H1651
Method in brief: as §1

[8] = tested on: NCI-H520
Method in brief: as §1

[9] = tested on: ABC-1
Method in brief: as §1

[10] = tested on: NCI-H460
Method in brief: as §1

[11] = tested on: RERF-LC-KJ
Method in brief: as §1

`Cc1cn(-c2cc(NC(=O)c3ccc(C)c(Nc4nccc(-c5cccnc5)n4)c3)cc(C(F)(F)F)c2)cn1` [Nilotinib] + CS(=O)(=O)N1CCN(Cc2cc3nc(-c4cccc5[nH]ncc45)nc(N4CCOCC4)c3s2)CC1 [Pictilisib] (partner 1 µM) was tested, and the relative viability ([1]; first compound 0.001 µM) was 0.435, the relative viability ([1]; first compound 0.003162 µM) was 0.457 and the relative viability ([1]; first compound 0.01 µM) was 0.402. It also gave a relative viability ([1]; first compound 0.03162 µM) of 0.466, a relative viability ([1]; first compound 0.1 µM) of 0.405 and a relative viability ([2]; first compound 0.001 µM) of 0.728. The relative viability ([2]; first compound 0.01 µM) was 0.731, the relative viability ([2]; first compound 0.03162 µM) was 0.658 and the relative viability ([2]; first compound 0.1 µM) was 0.11. It also gave a relative viability ([3]; first compound 0.001 µM) of 0.445, a relative viability ([3]; first compound 0.003162 µM) of 0.307 and a relative viability ([3]; first compound 0.01 µM) of 0.458. The relative viability ([3]; first compound 0.03162 µM) was 0.197, the relative viability ([3]; first compound 0.1 µM) was 0.186 and the relative viability ([4]; first compound 0.001 µM) was 0.352. It also gave a relative viability ([4]; first compound 0.003162 µM) of 0.41, a relative viability ([4]; first compound 0.01 µM) of 0.386 and a relative viability ([4]; first compound 0.03162 µM) of 0.393. For the same compound, the relative viability ([4]; first compound 0.1 µM) was 0.366, the relative viability ([5]; first compound 0.001 µM) was 0.396 and the relative viability ([5]; first compound 0.003162 µM) was 0.38. For the same compound, the relative viability ([5]; first compound 0.01 µM) was 0.438, the relative viability ([5]; first compound 0.03162 µM) was 0.325 and the relative viability ([5]; first compound 0.1 µM) was 0.391. For the same compound, the relative viability ([6]; first compound 0.001 µM) was 0.494, the relative viability ([6]; first compound 0.003162 µM) was 0.501 and the relative viability ([6]; first compound 0.01 µM) was 0.393. It also gave a relative viability ([6]; first compound 0.03162 µM) of 0.546, a relative viability ([6]; first compound 0.1 µM) of 0.378 and a relative viability ([7]; first compound 0.001 µM) of 0.576. The relative viability ([7]; first compound 0.003162 µM) was 0.619, the relative viability ([7]; first compound 0.01 µM) was 0.638 and the relative viability ([7]; first compound 0.03162 µM) was 0.568. For the same compound, the relative viability ([7]; first compound 0.1 µM) was 0.308, the relative viability ([8]; first compound 0.001 µM) was 0.283 and the relative viability ([8]; first compound 0.01 µM) was 0.296. It also gave a relative viability ([8]; first compound 0.03162 µM) of 0.283, a relative viability ([8]; first compound 0.1 µM) of 0.232 and a relative viability ([9]; first compound 0.001 µM) of 0.758. The relative viability ([9]; first compound 0.003162 µM) was 0.697, the relative viability ([9]; first compound 0.01 µM) was 0.788 and the relative viability ([9]; first compound 0.03162 µM) was 0.619. It also gave a relative viability ([9]; first compound 0.1 µM) of 0.346, a relative viability ([10]; first compound 0.001 µM) of 0.356 and a relative viability ([10]; first compound 0.003162 µM) of 0.41. For the same compound, the relative viability ([10]; first compound 0.01 µM) was 0.402, the relative viability ([10]; first compound 0.03162 µM) was 0.263 and the relative viability ([10]; first compound 0.1 µM) was 0.418. The relative viability ([11]; first compound 0.001 µM) was 0.549, the relative viability ([11]; first compound 0.003162 µM) was 0.572 and the relative viability ([11]; first compound 0.01 µM) was 0.533.
